Laboratory results: patent publication US11161830B2, “4-pyridone compound or salt thereof, and pharmaceutical composition and formulation including same” (priority 2017, dated 2021)
Values joined by “and” are separate entries in the source; they are usually repeats but may differ in a detail not shown here. Equal entries are not always repeated.

Columns and labels:
HBV genotype C [1] = assay: Test Example 3-3: in vivo efficacy study in PXB mouse (chimeric mouse with human hepatocytes); set-up: species or system hepatitis B virus; settings: individual mice
Experimental: An in vivo efficacy study with a PXB mouse (a chimeric mouse with human hepatocytes) was carried out in PhenixBio Co., Ltd. Male mice having body weights of 15 g or more after the elapse of 8 weeks from the infection with HBV genotype C were allocated into the respective groups and used.
The compounds of Example 20-2 was orally administered at 2 mg/kg, 6 mg/kg, and 20 mg/kg once a day, and at 1 mg/kg, 3 mg/kg, and 10 mg/kg twice a day, or 0.5% methylcellulose (vehicle) was orally administered once a day for 14 days. A first administration day was taken as day 0, and before administration on day 0, day 3, Day 7, and day 10, and on day 14, the blood was collected from the orbital venous plexus under anesthesia with isoflurane.
(§1) The serum was separated from the collected blood and purified with a QIAamp (registered trademark) DNA Blood Mini Kit (manufactured by QIAGEN). The amount of HBV-DNA in the obtained solution was absolutely quantified by a real-time PCR method. In addition, the amount of HBsAg in the serum was absolutely quantified by chemiluminescent enzyme immunoassay using Lumnipulse (registered trademark) HBsAg-HQ (manufactured by Fujirebio Inc.).

HBV genotype C [2] = assay: Test Example 3-2: in vivo efficacy study in PXB mouse (chimeric mouse with human hepatocytes), first and second study; set-up: species or system hepatitis B virus; settings: second study, orally 3 mg/kg twice a day for 14 days from day 35, individual mice, 3 mg/kg
Experimental: An in vivo efficacy study with a PXB mouse (a chimeric mouse with human hepatocytes) was carried out in PhenixBio Co., Ltd. 19-Week-or-more-old male mice having body weights of 10.5 g or more after the elapse of 13 weeks or more from the infection with HBV genotype C were allocated into the respective groups and used. The studies were carried out twice, and a 21-day administration withdrawal period was provided between the first study and the second study.
The first administration day in the first study was taken as day 0, and the compound of Example 6-5 was orally administered at 1 mg/kg, 3 mg/kg, 10 mg/kg, and 30 mg/kg twice a day, or 0.5% methylcellulose (vehicle) was orally administered once a day for 14 days. Before administration on day 0, day 3, Day 7, and day 10, and on day 14, the blood was collected from the orbital venous plexus under anesthesia with isoflurane.
The first administration day in the second study was taken as day 35, and the compounds of Examples 19-2 and 20-2 were each orally administered at 3 mg/kg twice a day, or 0.5% methylcellulose (vehicle) was orally administered once a day for 14 days. Before administration on day 35, day 38, day 42, and day 45, the blood was collected from the orbital venous plexus under anesthesia with isoflurane. On day 49, the blood was collected from the heart under anesthesia with isoflurane.
as §1, with “Lumipulse” for “Lumnipulse”

[3] = orally 1 mg/kg twice a day, Day 0 (before administration), 1 mg/kg
[4] = orally 1 mg/kg twice a day, Day 3, 1 mg/kg
[5] = orally 1 mg/kg twice a day, Day 7, 1 mg/kg
[6] = orally 1 mg/kg twice a day, Day 10, 1 mg/kg
[7] = orally 1 mg/kg twice a day, Day 14, 1 mg/kg
[8] = orally 2 mg/kg once a day, Day 0 (before administration), 2 mg/kg
[9] = orally 2 mg/kg once a day, Day 3, 2 mg/kg
[10] = orally 2 mg/kg once a day, Day 7, 2 mg/kg
[11] = orally 2 mg/kg once a day, Day 10, 2 mg/kg
[12] = orally 2 mg/kg once a day, Day 14, 2 mg/kg
[13] = orally 3 mg/kg twice a day, Day 0 (before administration), 3 mg/kg
[14] = orally 3 mg/kg twice a day, Day 3, 3 mg/kg
[15] = orally 3 mg/kg twice a day, Day 7, 3 mg/kg
[16] = orally 3 mg/kg twice a day, Day 10, 3 mg/kg
[17] = orally 3 mg/kg twice a day, Day 14, 3 mg/kg
[18] = orally 6 mg/kg once a day, Day 0 (before administration), 6 mg/kg
[19] = orally 6 mg/kg once a day, Day 3, 6 mg/kg
[20] = orally 6 mg/kg once a day, Day 7, 6 mg/kg
[21] = orally 6 mg/kg once a day, Day 10, 6 mg/kg
[22] = orally 6 mg/kg once a day, Day 14, 6 mg/kg
[23] = orally 10 mg/kg twice a day, Day 0 (before administration), 10 mg/kg
[24] = orally 10 mg/kg twice a day, Day 3, 10 mg/kg
[25] = orally 10 mg/kg twice a day, Day 7, 10 mg/kg
[26] = orally 10 mg/kg twice a day, Day 10, 10 mg/kg
[27] = orally 10 mg/kg twice a day, Day 14, 10 mg/kg
[28] = orally 20 mg/kg once a day, Day 0 (before administration), 20 mg/kg
[29] = orally 20 mg/kg once a day, Day 3, 20 mg/kg
[30] = orally 20 mg/kg once a day, Day 7, 20 mg/kg
[31] = orally 20 mg/kg once a day, Day 10, 20 mg/kg
[32] = orally 20 mg/kg once a day, Day 14, 20 mg/kg

COC1CN(c2nc3ccc(-n4cc(C(=O)O)c(=O)cc4-c4ccc(N5CC[C@@H](OC)C5)c(F)c4)cc3s2)C1 [Example 20-2]
HBV-DNA in blood (HBV genotype C [1]; [3]): 2.8E+08 copies/mL and 1.4E+08 copies/mL | HBsAg in serum (HBV genotype C [1]; [3]): 3,352 IU/mL and 2,640 IU/mL and 4,436 IU/mL | HBV-DNA in blood (HBV genotype C [1]; [4]): 1.7E+08 copies/mL and 1.2E+08 copies/mL and 3.7E+08 copies/mL | HBsAg in serum (HBV genotype C [1]; [4]): 3,056 IU/mL and 2,193 IU/mL and 4,655 IU/mL | HBV-DNA in blood (HBV genotype C [1]; [5]): 1.4E+08 copies/mL | HBsAg in serum (HBV genotype C [1]; [5]): 3,033 IU/mL and 1,691 IU/mL and 3,774 IU/mL | HBV-DNA in blood (HBV genotype C [1]; [6]): 1.4E+08 copies/mL and 3.7E+08 copies/mL | HBsAg in serum (HBV genotype C [1]; [6]): 2,356 IU/mL and 1,694 IU/mL and 3,775 IU/mL | HBV-DNA in blood (HBV genotype C [1]; [7]): 2.5E+08 copies/mL and 1.3E+08 copies/mL and 6.9E+08 copies/mL | HBsAg in serum (HBV genotype C [1]; [7]): 2,833 IU/mL and 2,077 IU/mL and 4,276 IU/mL | HBV-DNA in blood (HBV genotype C [1]; [8]): 4.5E+08 copies/mL and 4.7E+08 copies/mL and 4.4E+08 copies/mL | HBsAg in serum (HBV genotype C [1]; [8]): 2,534 IU/mL and 2,701 IU/mL and 3,776 IU/mL | HBV-DNA in blood (HBV genotype C [1]; [9]): 3.3E+08 copies/mL | HBsAg in serum (HBV genotype C [1]; [9]): 2,393 IU/mL and 1,918 IU/mL and 3,502 IU/mL | HBV-DNA in blood (HBV genotype C [1]; [10]): 1.7E+08 copies/mL and 5.3E+08 copies/mL | HBsAg in serum (HBV genotype C [1]; [10]): 1,612 IU/mL and 2,211 IU/mL and 3,236 IU/mL | HBV-DNA in blood (HBV genotype C [1]; [11]): 4.2E+08 copies/mL and 4.3E+08 copies/mL and 3.9E+08 copies/mL | HBsAg in serum (HBV genotype C [1]; [11]): 1,946 IU/mL and 1,609 IU/mL and 3,623 IU/mL | HBV-DNA in blood (HBV genotype C [1]; [12]): 4.3E+08 copies/mL | HBsAg in serum (HBV genotype C [1]; [12]): 1,526 IU/mL and 2,321 IU/mL and 3,366 IU/mL | HBV-DNA in blood (HBV genotype C [1]; [13]): 3.4E+08 copies/mL and 3.8E+08 copies/mL | HBsAg in serum (HBV genotype C [1]; [13]): 2,582 IU/mL and 2,395 IU/mL and 3,879 IU/mL | HBV-DNA in blood (HBV genotype C [1]; [14]): 2.2E+08 copies/mL and 1.8E+08 copies/mL and 2.1E+08 copies/mL | HBsAg in serum (HBV genotype C [1]; [14]): 1,034 IU/mL and 1,048 IU/mL and 1,801 IU/mL | HBV-DNA in blood (HBV genotype C [1]; [15]): 2.8E+08 copies/mL and 1.2E+08 copies/mL and 1.8E+08 copies/mL | HBsAg in serum (HBV genotype C [1]; [15]): 1,275 IU/mL and 785 IU/mL and 1,286 IU/mL | HBV-DNA in blood (HBV genotype C [1]; [16]): 4.3E+08 copies/mL | HBsAg in serum (HBV genotype C [1]; [16]): 1,017 IU/mL and 900 IU/mL and 1,379 IU/mL | HBV-DNA in blood (HBV genotype C [1]; [17]): 3.7E+08 copies/mL and 3.4E+08 copies/mL and 3.6E+08 copies/mL | HBsAg in serum (HBV genotype C [1]; [17]): 1,051 IU/mL and 910 IU/mL and 1,375 IU/mL | HBV-DNA in blood (HBV genotype C [1]; [18]): 6.7E+08 copies/mL and 1.6E+08 copies/mL and 4.3E+08 copies/mL | HBsAg in serum (HBV genotype C [1]; [18]): 3,883 IU/mL and 1,905 IU/mL and 3,703 IU/mL | HBV-DNA in blood (HBV genotype C [1]; [19]): 3.8E+08 copies/mL and 2.0E+08 copies/mL and 1.7E+08 copies/mL | HBsAg in serum (HBV genotype C [1]; [19]): 3,331 IU/mL and 1,529 IU/mL and 2,004 IU/mL | HBV-DNA in blood (HBV genotype C [1]; [20]): 1.5E+08 copies/mL and 3.3E+08 copies/mL | HBsAg in serum (HBV genotype C [1]; [20]): 3,453 IU/mL and 1,321 IU/mL and 2,025 IU/mL | HBV-DNA in blood (HBV genotype C [1]; [21]): 3.8E+08 copies/mL and 2.2E+08 copies/mL and 1.5E+08 copies/mL | HBsAg in serum (HBV genotype C [1]; [21]): 2,920 IU/mL and 1,342 IU/mL and 1,100 IU/mL | HBV-DNA in blood (HBV genotype C [1]; [22]): 2.2E+08 copies/mL and 1.5E+08 copies/mL and 7.7E+08 copies/mL | HBsAg in serum (HBV genotype C [1]; [22]): 2,569 IU/mL and 1,312 IU/mL and 1,879 IU/mL | HBV-DNA in blood (HBV genotype C [1]; [23]): 4.2E+08 copies/mL and 3.8E+08 copies/mL | HBsAg in serum (HBV genotype C [1]; [23]): 3,678 IU/mL and 2,545 IU/mL and 3,727 IU/mL | HBV-DNA in blood (HBV genotype C [1]; [24]): 1.7E+08 copies/mL and 2.5E+08 copies/mL | HBsAg in serum (HBV genotype C [1]; [24]): 994 IU/mL and 735 IU/mL and 901 IU/mL | HBV-DNA in blood (HBV genotype C [1]; [25]): 2.1E+08 copies/mL and 1.6E+08 copies/mL and 1.1E+08 copies/mL | HBsAg in serum (HBV genotype C [1]; [25]): 707 IU/mL and 547 IU/mL and 708 IU/mL | HBV-DNA in blood (HBV genotype C [1]; [26]): 1.5E+08 copies/mL and 1.7E+08 copies/mL | HBsAg in serum (HBV genotype C [1]; [26]): 861 IU/mL and 593 IU/mL and 676 IU/mL | HBV-DNA in blood (HBV genotype C [1]; [27]): 2.0E+08 copies/mL | HBsAg in serum (HBV genotype C [1]; [27]): 931 IU/mL and 620 IU/mL and 738 IU/mL | HBV-DNA in blood (HBV genotype C [1]; [28]): 2.8E+08 copies/mL | HBsAg in serum (HBV genotype C [1]; [28]): 3,225 IU/mL and 3,886 IU/mL and 2,106 IU/mL | HBV-DNA in blood (HBV genotype C [1]; [29]): 2.1E+08 copies/mL and 2.0E+08 copies/mL and 9.7E+07 copies/mL | HBsAg in serum (HBV genotype C [1]; [29]): 1,239 IU/mL and 1,019 IU/mL and 517 IU/mL | HBV-DNA in blood (HBV genotype C [1]; [30]): 1.6E+08 copies/mL and 1.4E+08 copies/mL and 8.2E+07 copies/mL | HBsAg in serum (HBV genotype C [1]; [30]): 1,003 IU/mL and 877 IU/mL and 385 IU/mL | HBV-DNA in blood (HBV genotype C [1]; [31]): 3.3E+08 copies/mL and 2.5E+08 copies/mL and 1.5E+08 copies/mL | HBsAg in serum (HBV genotype C [1]; [31]): 1,200 IU/mL and 1,104 IU/mL and 493 IU/mL | HBV-DNA in blood (HBV genotype C [1]; [32]): 2.1E+08 copies/mL and 2.9E+08 copies/mL and 1.6E+08 copies/mL | HBsAg in serum (HBV genotype C [1]; [32]): 1,037 IU/mL and 1,159 IU/mL and 497 IU/mL | HBV-DNA in blood (HBV genotype C [2]; Day 35 (before administration)): 8.2E+08 copies/mL and 8.3E+08 copies/mL | HBsAg in serum (HBV genotype C [2]; Day 35 (before administration)): 2,556 IU/mL and 3,408 IU/mL | HBV-DNA in blood (HBV genotype C [2]; Day 38): 4.6E+08 copies/mL and 4.0E+08 copies/mL | HBsAg in serum (HBV genotype C [2]; Day 38): 948 IU/mL and 1,061 IU/mL | HBV-DNA in blood (HBV genotype C [2]; Day 42): 2.6E+08 copies/mL and 5.0E+08 copies/mL | HBsAg in serum (HBV genotype C [2]; Day 42): 832 IU/mL and 1,478 IU/mL | HBV-DNA in blood (HBV genotype C [2]; Day 45): 3.5E+08 copies/mL and 3.1E+08 copies/mL | HBsAg in serum (HBV genotype C [2]; Day 45): 859 IU/mL and 1,185 IU/mL | HBV-DNA in blood (HBV genotype C [2]; Day 49): 2.3E+08 copies/mL and 2.7E+08 copies/mL | HBsAg in serum (HBV genotype C [2]; Day 49): 1,444 IU/mL and 924 IU/mL
